The assay deals with T1, JNK3 (Homo sapiens, UniProt P53779).
T1 construct: One such construct encodes amino acid residues Ser40-Glu402 of JNK3α1 and is preceded by Met and Gly residues; Met-Gly (initiation methionine plus glycine added for the NcoI site); made in house; host or cells: E. coli BL21 (DE3)
Briefly: JNK inhibition assay: spectrophotometric coupled-enzyme assay with activated JNK3. The assay is classed as biochemical. To be noted: activated JNK3 10 nM, 10 μM ATP, 200 μM EGF receptor peptide, 30° C., competitive inhibition model. An excerpt:
A BLAST search of the EST database using the published JNK3α1 cDNA as a query identified an EST clone (#632588) that contained the entire coding sequence for human JNK3α1. Polymerase chain reactions (PCR) using pfu polymerase (Strategene) were used to introduce restriction sites into the cDNA for cloning into the pET-15B expression vector at the NcoI and BamHI sites. The protein was expressed in E. coli. […] This truncation corresponds to Ser 2 of JNK1 and JNK2 proteins, and is preceded by a methionine (initiation) and a glycine residue. The glycine residue was added in order to introduce an NcoI site for cloning into the expression vector. In addition, systematic C-terminal truncations were performed by PCR to identify a construct that give rise to diffraction-quality crystals.
5 mg of JNK3 was diluted to 0.5 mg/ml in 50 mM HEPES buffer, pH 7.5, containing 100 mM NaCl, 5 mM DTT, 20 mM MgCl2 and 1 mM ATP. GST-MKK7(DD) was added at a molar ratio of 1:2.5 GST-MKK7:JNK3. After incubation for 30 minutes at 25° C., the reaction mixture was concentrated 5-fold by ultrafiltration in a Centriprep-30 (Amicon, Beverly, Mass.), diluted to 10 ml and an additional 1 mM ATP added. This procedure was repeated three times to remove ADP and replenish ATP. The final addition of ATP was 5 mM and the mixture incubated overnight at 4° C.
The activated JNK3/GST-MKK7(DD) reaction mixture was exchanged into 50 mM HEPES buffer, pH 7.5, containing 5 mM DTT and 5% glycerol (w/v) by dialysis or ultrafiltration. The reaction mixture was adjusted to 1.1 M potassium phosphate, pH 7.5, and purified by hydrophobic interaction chromatography (at 25° C.) using a Rainin Hydropore column. […] Activated JNK3 (i.e. doubly phosphorylated JNK3) was stored at −70° C. at 0.25-1 mg/ml.
Compounds were assayed for the inhibition of JNK3 by a spectrophotometric coupled-enzyme assay. In this assay, a fixed concentration of activated JNK3 (10 nM) was incubated with various concentrations of a potential inhibitor dissolved in DMSO for 10 minutes at 30° C. in a buffer containing 0.1 M HEPES buffer, pH 7.5, containing 10 mM MgCl2, 2.5 mM phosphoenolpyruvate, 200 μM NADH, 150 μg/mL pyruvate kinase, 50 μg/mL lactate dehydrogenase, and 200 μM EGF receptor peptide. […] The reaction was initiated by the addition of 10 μM ATP and the assay plate is inserted into the spectrophotometer's assay plate compartment that was maintained at 30° C. The decrease of absorbance at 340 nm was monitored as a function of time. The rate data as a function of inhibitor concentration was fitted to competitive inhibition kinetic model to determine the Ki.

Experimental findings from patent US7612065B2, “Inhibitors of c-JUN N-terminal kinases (JNK)” (priority 2007, dated 2009) are described below.

T1 sequence (P53779 40-402): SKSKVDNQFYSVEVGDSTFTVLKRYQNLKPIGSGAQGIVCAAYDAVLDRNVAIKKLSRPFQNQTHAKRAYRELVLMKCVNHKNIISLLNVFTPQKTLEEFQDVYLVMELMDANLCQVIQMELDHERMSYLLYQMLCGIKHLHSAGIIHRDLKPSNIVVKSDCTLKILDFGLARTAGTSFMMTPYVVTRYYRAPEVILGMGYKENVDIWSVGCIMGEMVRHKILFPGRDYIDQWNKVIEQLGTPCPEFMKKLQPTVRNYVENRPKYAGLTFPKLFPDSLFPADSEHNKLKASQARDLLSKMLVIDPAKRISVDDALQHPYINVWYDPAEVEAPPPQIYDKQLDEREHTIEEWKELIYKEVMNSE

The Ki is the dissociation constant of the complex between target and ligand, obtained from inhibition or displacement. As for `O=C1/C(=N\O)c2ccccc2N1Cc1cccc(F)c1` [Compound 20], the Ki was ≥ 1000 nM.

Turning to `O=C1/C(=N\O)c2cc([N+](=O)[O-])ccc2N1Cc1ccc(Cl)cc1` [Compound 12], the Ki was ≥ 1000 nM.

For `Cc1ccccc1CNC(=O)c1ccc2c(c1)N(Cc1cc(F)cc3c1OCOC3)C(=O)/C2=N\O` [Compound 233], the inhibition constant (Ki) is ≥ 1000 nM.

Consider `COc1ccc(-c2ccc3c(c2)N(Cc2cc(F)cc4c2OCOC4)C(=O)/C3=N\O)cc1` [Compound 329], for which the Ki is ≥ 1000 nM.

Regarding `O=C1/C(=N/O)c2ccc(-c3ccsc3)cc2N1CCOc1ccccc1` [Compound 183], the Ki was ≥ 1000 nM.

For `Cc1cc(Cl)cc2c1N(Cc1ccccc1C#N)C(=O)/C2=N\O` [Compound 99], the Ki was ≥ 1000 nM.

In the case of `O=C1/C(=N\O)c2cc([N+](=O)[O-])ccc2N1Cc1cc(F)cc2c1OCOC2` [Compound 284], the inhibition constant (Ki) is ≥ 1000 nM.

Take `Nc1cccc2c1/C(=N/O)C(=O)N2Cc1cc(F)cc2c1OCOC2` [Compound 282]: the Ki was ≥ 1000 nM.

On to `CN(C)CC(=O)Nc1ccc2c(c1)N(Cc1cc(F)cc3c1OCOC3)C(=O)/C2=N\O` [Compound 223], for which the Ki was ≥ 1000 nM.

On to `O=C(Nc1ccc2c(c1)N(Cc1cc(F)cc3c1OCOC3)C(=O)/C2=N\O)c1ccccc1Cl` [Compound 342], for which the Ki is < 1000 nM.

For the compound `CC(=O)NCC(=O)NCC(=O)Nc1ccc2c(c1)N(Cc1cc(F)cc3c1OCOC3)C(=O)/C2=N\O` [Compound 347], the Ki was ≥ 1000 nM.

`C[C@H](NC(=O)OCC1c2ccccc2-c2ccccc21)C(=O)Nc1ccc2c(c1)N(Cc1cc(F)cc3c1OCOC3)C(=O)/C2=N\O` [Compound 352]: the inhibitory constant (Ki) was ≥ 1000 nM.

Turning to `Cc1cccc(CN2C(=O)/C(=N\O)c3cc(F)ccc32)c1` [Compound 57], the Ki is ≥ 1000 nM.

Consider `Nc1cccc(-c2ccc3c(c2)/C(=N/O)C(=O)N3Cc2cc(F)cc3c2OCOC3)c1` [Compound 280], for which the inhibition constant Ki was ≥ 1000 nM.

With `N#CCC(=O)Nc1ccc2c(c1)N(Cc1cc(F)cc3c1OCOC3)C(=O)/C2=N\O` [Compound 217], the inhibitory constant (Ki) was < 1000 nM.

With `CC(C)c1ccc(-c2ccc3c(c2)N(Cc2cc(F)cc4c2OCOC4)C(=O)/C3=N\O)cc1` [Compound 334], the Ki was ≥ 1000 nM.

As for `O=C1/C(=N\O)c2cc(NCc3ccc(O)cc3)ccc2N1Cc1cc(F)cc2c1OCOC2` [Compound 304], the inhibition constant (Ki) was ≥ 1000 nM.

Consider `COc1ccc(C(=O)Nc2ccc3c(c2)N(Cc2cc(F)cc4c2OCOC4)C(=O)/C3=N\O)cc1` [Compound 338], for which the Ki is ≥ 1000 nM.

Turning to `Cc1ccc(CN2C(=O)/C(=N\O)c3cc([N+](=O)[O-])ccc32)cc1` [Compound 33], the Ki is ≥ 1000 nM.

With `O=C1/C(=N\O)c2ccccc2N1Cc1cccc(C(F)(F)F)c1` [Compound 6], the Ki was ≥ 1000 nM.

Consider `CCC(=O)Nc1ccc2c(c1)N(Cc1cc(F)cc3c1OCOC3)C(=O)/C2=N\O` [Compound 344], for which the Ki is < 1000 nM.

For the compound `O=C1/C(=N\O)c2ccc(-c3ccc(F)cc3F)cc2N1Cc1cc(F)cc2c1OCOC2` [Compound 313], the inhibitory constant (Ki) was < 1000 nM.

Turning to `CC(C)CNC(=O)c1ccc2c(c1)N(Cc1cc(F)cc3c1OCOC3)C(=O)/C2=N\O` [Compound 287], the inhibition constant Ki was ≥ 1000 nM.

For the compound `CN(C)CCNC(=O)c1ccc2c(c1)N(Cc1cc(F)cc3c1OCOC3)C(=O)/C2=N\O` [Compound 295], the Ki is ≥ 1000 nM.

For the compound `N#Cc1cccc2c1/C(=N/O)C(=O)N2Cc1cc(F)cc2c1OCOC2` [Compound 212], the inhibitory constant (Ki) is ≥ 1000 nM.

`O=C1/C(=N\O)c2cc(F)ccc2N1Cc1cccc(Oc2ccccc2)c1` [Compound 82]: the Ki is ≥ 1000 nM.

For `CCC(C(=O)Nc1ccc2c(c1)N(Cc1cc(F)cc3c1OCOC3)C(=O)/C2=N/O)c1ccccc1` (centres unmarked) [Compound 323], the inhibition constant Ki was < 1000 nM.

With `COC(=O)CCCN1C(=O)/C(=N/O)c2ccc(-c3ccsc3)cc21` [Compound 186], the inhibitory constant (Ki) was ≥ 1000 nM.

Consider `O=C(Nc1ccc2c(c1)N(Cc1cc(F)cc3c1OCOC3)C(=O)/C2=N\O)c1ccc([N+](=O)[O-])cc1` [Compound 260], for which the inhibitory constant (Ki) is < 1000 nM.

For `O=C1/C(=N\O)c2ccccc2N1Cc1cccc(Oc2ccccc2)c1` [Compound 66], the Ki is ≥ 1000 nM.

With `O=C(NCCN1CCCC1)c1ccc2c(c1)N(Cc1cc(F)cc3c1OCOC3)C(=O)/C2=N\O` [Compound 289], the Ki is ≥ 1000 nM.

Take `CC(C)CCN(CCC(C)C)c1ccc2c(c1)/C(=N/O)C(=O)N2Cc1cc(F)cc2c1OCOC2` [Compound 308]: the Ki is ≥ 1000 nM.

Turning to `CC(C)C(=O)Nc1ccc2c(c1)N(Cc1cc(F)cc3c1OCOC3)C(=O)/C2=N\O` [Compound 261], the inhibition constant (Ki) was < 1000 nM.

Regarding `O=C1/C(=N\O)c2ccccc2N1Cc1ccc(Cl)c(Cl)c1` [Compound 5], the inhibition constant Ki is < 1000 nM.

Regarding `O=C(Nc1ccc2c(c1)/C(=N/O)C(=O)N2Cc1ccccc1)c1cccc2ccccc12` [Compound 136], the Ki was ≥ 1000 nM.

Take `O=C(NCC1CCCO1)c1ccc2c(c1)N(Cc1cc(F)cc3c1OCOC3)C(=O)/C2=N\O` (centres unmarked) [Compound 290]: the inhibitory constant (Ki) was ≥ 1000 nM.

With `CCCCc1cccc2c1/C(=N/O)C(=O)N2Cc1cc(F)cc2c1OCOC2` [Compound 337], the Ki is < 1000 nM.

As to `O=C1/C(=N\O)c2c(-c3ccccc3)cccc2N1Cc1cc(F)cc2c1OCOC2` [Compound 202], the inhibition constant (Ki) is ≥ 1000 nM.

Regarding `COc1cc(CN2C(=O)/C(=N\O)c3cc(NC(=O)CCc4ccccc4)ccc32)cc(OC)c1` [Compound 131], the inhibitory constant (Ki) was ≥ 1000 nM.

In the case of `COc1cccc(C(=O)Nc2ccc3c(c2)N(Cc2cc(F)cc4c2OCOC4)C(=O)/C3=N\O)c1` [Compound 250], the inhibition constant Ki was < 1000 nM.

Regarding `COC(=O)c1ccc2c(c1)N(Cc1cc(C)cc3c1OCOC3)C(=O)/C2=N\O` [Compound 215], the Ki was < 1000 nM.

As for `COC(=O)CCCN1C(=O)/C(=N/O)c2ccc(CBr)cc21` [Compound 190], the inhibition constant Ki was ≥ 1000 nM.

`O=C1/C(=N\O)c2cc(Cl)ccc2N1Cc1csc(-c2ccc(Cl)cc2)n1` [Compound 77]: the inhibition constant (Ki) was < 1000 nM.

Consider `CC(C)CCNC(=O)c1ccc2c(c1)N(Cc1cc(F)cc3c1OCOC3)C(=O)/C2=N\O` [Compound 294], for which the inhibition constant (Ki) was ≥ 1000 nM.

On to `O=C1/C(=N\O)c2ccc(Br)cc2N1Cc1cc(F)cc2c1OCOC2` [Compound 152], for which the inhibition constant (Ki) is < 1000 nM.

As to `COc1ccc(C(=O)Nc2ccc3c(c2)N(Cc2cc(F)cc4c2OCOC4)C(=O)/C3=N\O)cc1OC` [Compound 339], the Ki is ≥ 1000 nM.

On to `CC(C)=Cc1cccc2c1/C(=N/O)C(=O)N2Cc1cc(F)cc2c1OCOC2` [Compound 336], for which the inhibition constant (Ki) is < 1000 nM.

As for `Nc1ccc2c(c1)/C(=N/O)C(=O)N2Cc1cc(F)cc2c1OCOC2` [Compound 285], the inhibitory constant (Ki) was ≥ 1000 nM.

As for `O=C1/C(=N\O)c2ccccc2N1Cc1ncc(C(F)(F)F)cc1Cl` [Compound 70], the Ki is ≥ 1000 nM.

Consider `CCOC(=O)C(=O)Nc1ccc2c(c1)N(Cc1cc(F)cc3c1OCOC3)C(=O)/C2=N\O` [Compound 258], for which the inhibition constant (Ki) is < 1000 nM.

Turning to `COc1cc(CN2C(=O)/C(=N\O)c3ccc(C(F)(F)F)cc32)cc(OC)c1` [Compound 164], the inhibitory constant (Ki) was < 1000 nM.

On to `O=C1/C(=N\O)c2ccccc2N1Cc1cc(F)cc2c1OCOC2` [Compound 69], for which the Ki is < 1000 nM.

As for `O=C1/C(=N\O)c2c(-c3cccc(F)c3)cccc2N1Cc1cc(F)cc2c1OCOC2` [Compound 203], the Ki is ≥ 1000 nM.

Take `O=C(Nc1ccc2c(c1)N(Cc1cc(F)cc3c1OCOC3)C(=O)/C2=N\O)c1cc(=O)c2ccccc2o1` [Compound 218]: the inhibition constant (Ki) was ≥ 1000 nM.

Turning to `O=C1/C(=N\O)c2ccccc2N1Cc1ccc(Cl)cc1Cl` [Compound 7], the Ki was < 1000 nM.

With `O=C(Nc1ccc2c(c1)N(Cc1cc(F)cc3c1OCOC3)C(=O)/C2=N\O)C1CCCC1` [Compound 225], the Ki is < 1000 nM.

`O=C(c1ccc2c(c1)/C(=N\O)C(=O)N2Cc1cc(F)cc2c1OCOC2)c1ccccc1Cl` [Compound 356]: the Ki was < 1000 nM.

For `O=C1/C(=N\O)c2ccccc2N1Cc1ccccc1F` [Compound 21], the inhibitory constant (Ki) was ≥ 1000 nM.

For the compound `O=C1/C(=N\O)c2cc([N+](=O)[O-])ccc2N1Cc1ccc(Cl)cc1Cl` [Compound 11], the Ki is ≥ 1000 nM.
